For one assay, the system named is MOLM-13 tumor xenograft. Details: method as in PMID 22187040. The settings on record: 25 mg/kg, same MOLM-13 model; cited from earlier work.
The next assay has as its system MOLM-13 cells. The assay can be described thus: Apoptosis assay, Annexin V-FITC/PI flow cytometry. In kind it is cell-based, human. The settings on record: MOLM-13 (FLT3-ITD-expressing cells), 300 nM, 48 hours. How it is done: (§1) The number of apoptotic cells was determined by fluorescence-activated cell sorting (FACS) analyses using Annexin V-FITC staining. In brief, cells were centrifuged after drug treatment and resuspended in 1× binding buffer containing 2.5 mM of calcium (Ca2+). Cells were incubated with Annexin V-FITC (Biolegend, San Diego, CA) and propidium iodide (PI) (Sigma–Aldrich, St. Louis, MO) in the dark at room temperature for 20 minutes. Next, samples were reconstituted with 1× binding buffer and subjected to flow cytometry FACS Calibus (BD Bioscience, Franklin Lakes, NJ) to analyze the Annexin V-positive population using CellQuest Pro (BD Bioscience) and FlowJo (Treestar, Inc., San Carlos, CA).
(§2) Some histone deacetylase inhibitors (HDACi) will enhance the cytotoxic activity of FLT3 inhibitor on FLT3-ITD^+ cell via degradation of FLT3-ITD and STAT5 [24], [26], [36], [37]. […]
(§3) Figure 4 The effect of BPR1J-340 and SAHA versus drug combination on AML FLT3-ITD+ cells. […] (A) Viable cells were counted after staining with trypan blue dye at indicated time point (B) At 48-hours after treatment, cells were stained with FITC-labeled annexin V and propidium iodide and percentages of apoptotic cells were analyzed by flow cytometry. […]
In general terms: In flow cytometry, cells or beads pass a laser one at a time.

A further assay has as its system MV4;11 cells. The assay can be described thus: Apoptosis assay, Annexin V-FITC/PI flow cytometry. In kind it is cell-based, human. The settings on record: MV4;11 (FLT3-ITD-expressing cells), 300 nM, 48 hours. Here is the method: as §1, §2, §3

In the case of `CN1CCN(c2ccc(C(=O)Nc3cc(-c4cccc(NS(=O)(=O)c5ccccc5)c4)n[nH]3)cc2)CC1` [BPR1J-097, N1-(3-3-[(phenylsulfonyl)amino]phenyl-1H-5-pyrazolyl)-4-(4-methylpiperazino)benzamide], the “CR, animals” value with MOLM-13 tumor xenograft is listed as 1/8.
For `O=C(CCCCCCC(=O)Nc1ccccc1)NO` [SAHA, vorinostat], the “rate of apoptotic cells versus control” value with MOLM-13 cells and with MV4;11 cells was “did not increase” each time.

(Values after paper PMC3885398, “Evaluation of the Antitumor Effects of BPR1J-340, a Potent and Selective FLT3 Inhibitor, Alone or in Combination with an HDAC Inhibitor, Vorinostat, in AML Cancer” (PLoS ONE, 2014).)
